The record followed here is a melting point compilation (Tetko et al.).

Residues, ends and D or L forms follow the SMILES beside them. *: point of attachment. Cbz = O=C(OCc1ccccc1)*

For the compound `CCO[Si](CCCCOc1ccc(S(=O)(=O)c2ccc(OCCCC[Si](OCC)(OCC)OCC)cc2Cc2ccc(C(F)(F)F)cc2)c(Cc2ccc(C(F)(F)F)cc2)c1)(OCC)OCC`, the melting point (as a rule, the temperature, or range, at which the solid turns liquid) fell in the range of 124 to 128 °C. `O=C(Cc1ccccc1)Oc1n[nH]c(=O)c2nc3cc(Cl)ccc3c(O)c12`: the melting point is 278 to 282 °C. `FC(F)OC(Cl)C(F)(F)F` (stereo unspecified) had a melting point of -108 °C. As for `CCOC(=O)C1=C(COCC(O)C(O)COCC2=C(C(=O)OCC)C(c3ccccc3Cl)C(C(=O)OC)=C(C)N2)NC(C)=C(C(=O)OC)C1c1ccccc1Cl` (stereo unspecified), the figure is 76.5 to 78 °C. For the compound `CSCC[C@H](NC(=O)[C@H](CC(C)C)NC(=O)[C@H](C)NC(=O)[C@@H](N)CC(C)C)C(=O)NCCNc1ccc(NCCNC(=O)[C@H](CCSC)NC(=O)[C@H](CC(C)C)NC(=O)[C@H](C)NC(=O)[C@@H](N)CC(C)C)c2c1C(=O)c1c(O)ccc(O)c1C2=O`, the melting point was found to be 210 °C.

`CC(C)[C@H](NC(=O)N(C)CCc1ccccn1)C(=O)N[C@@H](Cc1ccccc1)[C@H](O)[C@@H](O)[C@H](Cc1ccccc1)NC(=O)[C@@H](NC(=O)N(C)CCc1ccccn1)C(C)C` registered a melting point of 109 to 111 °C. `COc1cc(OC)c(/C=C/C(c2ccc(OC)c(NC(=O)c3ccccc3)c2)S(=O)(=O)C(/C=C/c2c(OC)cc(OC)cc2OC)c2ccc(OC)c(NC(=O)c3ccccc3)c2)c(OC)c1` (stereo unspecified) came in with a melting point of 163 to 166 °C.

In turn, `CCCCCCCCCCS(=O)(=O)c1c(S(=O)(=O)CCCCCCCCCC)c(S(=O)(=O)CCCCCCCCCC)c(S(=O)(=O)CCCCCCCCCC)c(S(=O)(=O)CCCCCCCCCC)c1S(=O)(=O)CCCCCCCCCC` registered a melting point of 76 °C.

In turn, `O=c1cc(O)cc(-c2ccc(Cl)cc2)o1` showed a melting point of 247 to 249 °C.

Turning to `CCCCCCCCCCCCCCCCCC(=O)OCC(COC(=O)C(N)Cc1ccc(N(CCCl)CCCl)cc1)OC(=O)CCCCCCCCCCCCCCCCC` (stereo unspecified), the melting point fell in the range of 82 to 83 °C. `CCOc1cc2c(cc1O)CCC1C2CCC2(C)C(O)CCC12` (stereo unspecified) yielded a melting point of 154 to 155 °C. Then `CS(=N)(=O)c1ccc(-n2cnnn2)cc1` (stereo unspecified), with 180 to 181 °C; and `N=C(NC(=O)OCc1ccccc1)N(CCCC(NC(=O)C(Cc1ccccc1)NC(=O)c1ccccc1)C(=O)Oc1cccc2ccccc12)C(=O)OCc1ccccc1` (stereo unspecified), with 177 to 185 °C.

Compound `[C-]#[N+]Cc1c(OC)cc(OC)cc1OC` registered a melting point of 107 to 109 °C. On to `COc1ccc(C(CCCC(C(=O)C(CCCC(c2ccc(OC)c(OC)c2)N2C(=O)c3ccccc3C2=O)N2C(=O)c3ccccc3C2=O)N2C(=O)c3ccccc3C2=O)N2C(=O)c3ccccc3C2=O)cc1OC` (stereo unspecified), for which the melting point came to 195 °C. Compound `CC(C)[C@H](NC(=O)N1CCN(c2ccccc2)CC1)C(=O)N[C@@H](Cc1ccccc1)[C@@H](O)[C@H](O)[C@H](Cc1ccccc1)NC(=O)[C@@H](NC(=O)N1CCN(c2ccccc2)CC1)C(C)C` registered a melting point of 165 to 166 °C.

Compound `COc1cc(OC)c(/C=C/C(c2ccc(OC)c(NC(=O)c3cc([N+](=O)[O-])cc([N+](=O)[O-])c3)c2)S(=O)(=O)C(/C=C/c2c(OC)cc(OC)cc2OC)c2ccc(OC)c(NC(=O)c3cc([N+](=O)[O-])cc([N+](=O)[O-])c3)c2)c(OC)c1` (stereo unspecified) showed a melting point of 277 to 279 °C. `CCOC(=O)C=Cc1cc2cc(OC)ccc2[nH]c1=O` registered a melting point of 209 to 211 °C. In turn, `CCNC(=O)[C@@H]1CCCN1C(=O)[C@H](CCCNC(=N)N)NC(=O)[C@H](CC(C)C)NC(=O)[C@@H](Cc1ccc2ccccc2c1)NC(=O)[C@H](Cc1ccc(O)cc1)NC(=O)[C@H](CO)NC(=O)[C@H](Cc1c[nH]c2ccccc12)NC(=O)[C@H](Cc1c[nH]cn1)NC(=O)[C@@H]1CCC(=O)N1` displayed a melting point of 180 to 190 °C. As for `CCOC(=O)c1c(Nc2ccccc2)n[nH]c1C`, the figure is 160 to 164 °C; as for `COC(=O)C(CC(C)C)NC(=O)C(Cc1ccccc1)NC(=O)C(Cc1ccc(O)cc1)NC(=O)C(CO)NC(=O)C(Cc1c[nH]c2ccccc12)NC(=O)OCc1ccccc1` (stereo unspecified) (Cbz-WSYFL-OMe; configuration not given here), 221 to 223 °C.
